Where “and” joins values, the source holds several entries; their conditions need not be identical. Equal values may be shown once.
Assays:
Assay type in all cases: in vivo, human
subjects [1] = experiment: VAS-Ability to tolerate stress; parameters: VAS-Ability to tolerate stress rating, Mean / VAS-Ability to tolerate stress changes from baseline, Mean Difference ± SE / VAS-Ability to tolerate stress area under the curve, Mean Difference ± SE / VAS-Ability to tolerate stress area under the curve, Mean: scale not given here
Protocol: (§1) The inventors have discovered various compositions and methods of improving various indices of neurological and neuroenergetic functions by administering 100 mg (once daily) dosages of DYNAMINE™ (dosage between 1.0 and 1.4 mg/kg) as described in the following:
(§2) All neuroenergetic tests as listed below were performed and data were collected after 0 and 4 days of assigned supplements (with acute effects also measured at day 4 over 180 minutes):
All VAS Measurement (Energy, Sustained Energy, Mental Stamina, Ability to Focus, Ability to Concentrate, Motivation to Accomplish Difficult Tasks, Drive, Vigor, Level of Positive Outlook, Mood, Feelings of Well-Being, Tolerate Stress); Day 0: Two tests were completed. The average of both scores was computed and this value was used in all statistical analysis. Day 4 (0 minutes after ingesting dose #4): Two tests were completed. The average of both scores was computed and this value was used in all statistical analysis. Day 4 (60, 120, and 180 minutes after ingesting dose #4): One test was completed at each time point.
Neuroenergic parameters are inherently subjective, nevertheless significant in human behavior and well-being. To allow for a standardization among different subjects, the following experiments were performed using a visual analog scale using anchor statements (lowest possible/highest possible) in which subjects were asked to rate their subjective experience with respect to the specific neuroenergic parameters tested.
VAS-Ability to tolerate stress: In this subjective test, subjects were asked to rate their personal level of energy on a VAS scale using the prompt of “My ability to tolerate stress right now is . . . ” (with rating lowest possible to highest possible)”. Results were collected as noted above and Table 37 provides exemplary results for Day 0 versus Day 4 ratings, whereas Table 38 provides exemplary acute results measured at Day 4 over a duration of 180 minutes.

subjects [2] = experiment: Stroop-Total Score
Protocol: as §1, §2
(§3) Stroop Color Matching Test (Total Score, Accuracy %, Average Score): Day 0: Two blocks of three tests were completed. Each block of three tests was separated by 10 minutes. The median of each block was taken and then those two scores were averaged. This value was used in all statistical analysis. Day 4: Three tests were completed at four time points: after 0, 60, 120, and 180 minutes of taking dose #4. The median of the three tests at each time point was used in all statistical analysis.
(§4) The Stroop Color and Word Test (SCWT, or Stroop test) is a neuropsychological test extensively used to assess the ability to inhibit cognitive interference that occurs when the processing of a specific stimulus feature impedes the simultaneous processing of a second stimulus attribute, well-known as the Stroop effect (see e.g., Front Psychol. 2017; 8:557). Here, subjects were required to read three different tables as fast as possible. Two of them represent the “congruous condition” in which participants are required to read names of colors (‘color-words’) printed in black ink (W) and name different color patches (C). However, in the third table, the color-word (CW) condition, color-words are printed in an inconsistent color ink (e.g., the word “red” is printed in green ink). In this incongruent condition, participants are required to name the color of the ink instead of reading the word. In other words, the participants are required to perform a less automated task (i.e., naming ink color) while inhibiting the interference arising from a more automated task (i.e., reading the word). This difficulty in inhibiting the more automated process is called the Stroop effect. The Stroop test is predominantly used to measure the ability to inhibit cognitive interference. However, some sources also report its application to measure other cognitive functions such as attention, processing speed, cognitive flexibility, and working memory.
(§5) Stroop-Total Score: The results for this test were based on a total score comparing performance between Day 0 and Day 4, with Day 4 including tests over a duration of 180 minutes. Results were collected as noted above and Table 41 provides exemplary results for Day 0 versus Day 4 ratings, whereas Table 42 provides exemplary acute results measured at Day 4 over a duration of 180 minutes.

subjects [3] = experiment: Stroop-Accuracy
Protocol: as §1, §2, §3, §4
as §5, with “Stroop-Accuracy:” for “Stroop-Total Score:”, “an accuracy” for “a total”, “43” for “41”, “44” for “42”

subjects [4] = experiment: Stroop-Average Time; conditions: unit assumed
Protocol: as §1, §2, §3, §4
as §5, with “Stroop-Average Time:” for “Stroop-Total Score:”, “an average time” for “a total”, “45” for “41”, “46” for “42”

[5] = 100 mg once daily, Day 4, 0-180 min, vs Group A (placebo)
[6] = 100 mg once daily, Day 4, 0 min after dose #4
[7] = 100 mg once daily, Day 4, 60 min-0 min, vs Group A (placebo)
[8] = 100 mg once daily, Day 4, 60 min after dose #4
[9] = 100 mg once daily, Day 4, 120 min-0 min, vs Group A (placebo)
[10] = 100 mg once daily, Day 4, 120 min after dose #4
[11] = 100 mg once daily, Day 4, 180 min-0 min, vs Group A (placebo)
[12] = 100 mg once daily, Day 4, 180 min after dose #4

Question: How did the “VAS-Ability to tolerate stress area under the curve, Mean” value (subjects [1]; 100 mg once daily, Day 4, 0-180 min) turn out when `COc1nc2c(c(=O)n1C)n(C)c(=O)n2C` [methylliberine, 2-methoxy-1,7,9-trimethylpurine-6,8-dione] was run?
Answer: 1075

Question: What about the “VAS-Ability to tolerate stress area under the curve, Mean Difference ± SE” value (subjects [1]; [5]) of the same molecule?
Answer: 45.5 ± 45.6

Question: And the “VAS-Ability to tolerate stress area under the curve, effect size d” value (subjects [1]; [5])?
Answer: −0.13

Question: And the “VAS-Ability to tolerate stress rating, Mean” value (subjects [1]; [6])?
Answer: 5.7

Question: And the “VAS-Ability to tolerate stress changes from baseline, Mean Difference ± SE” value (subjects [1]; [7])?
Answer: 0.17 ± 0.18

Question: And the “VAS-Ability to tolerate stress changes from baseline, effect size d” value (subjects [1]; [7])?
Answer: 0.21

Question: And the “VAS-Ability to tolerate stress rating, Mean” value (subjects [1]; [8])?
Answer: 6.2

Question: What about the “VAS-Ability to tolerate stress changes from baseline, Mean Difference ± SE” value (subjects [1]; [9]) of the same molecule?
Answer: 0.28 ± 1.42

Question: And the “VAS-Ability to tolerate stress changes from baseline, effect size d” value (subjects [1]; [9])?
Answer: 0.27

Question: What about the “VAS-Ability to tolerate stress rating, Mean” value (subjects [1]; [10]) of the same molecule?
Answer: 6.4

Question: And the “VAS-Ability to tolerate stress changes from baseline, Mean Difference ± SE” value (subjects [1]; [11])?
Answer: 0.67 ± 0.30

Question: And the “VAS-Ability to tolerate stress changes from baseline, effect size d” value (subjects [1]; [11])?
Answer: 0.52 and 0.54

Question: And the “VAS-Ability to tolerate stress rating, Mean” value (subjects [1]; [12])?
Answer: 6.4

Question: What about the “VAS-Ability to tolerate stress rating, Mean” value (subjects [1]; Day 0 (before supplementation)) of the same molecule?
Answer: 6.1

Question: What about the “Stroop total score, Mean” value (subjects [2]; [6]) of the same molecule?
Answer: 127.4

Question: And the “Stroop total score, Mean” value (subjects [2]; [8])?
Answer: 131.5

Question: And the “Stroop total score, Mean” value (subjects [2]; [10])?
Answer: 132.1

Question: And the “Stroop total score, Mean” value (subjects [2]; [12])?
Answer: 134.8

Question: What about the “Stroop total score, Mean” value (subjects [2]; Day 0 (before supplementation)) of the same molecule?
Answer: 125.0

Question: What about the “Stroop accuracy, Mean” value (subjects [3]; [6]) of the same molecule?
Answer: 99.2%

Question: What about the “Stroop accuracy, Mean” value (subjects [3]; [8]) of the same molecule?
Answer: 99.1%

Question: And the “Stroop accuracy, Mean” value (subjects [3]; [10])?
Answer: 99.0%

Question: What about the “Stroop accuracy, Mean” value (subjects [3]; [12]) of the same molecule?
Answer: 98.9%

Question: And the “Stroop accuracy, Mean” value (subjects [3]; Day 0 (before supplementation))?
Answer: 99.2%

Question: And the Stroop average time, Mean (subjects [4]; [6])?
Answer: 0.961 s

Question: What about the Stroop average time, Mean (subjects [4]; [8]) of the same molecule?
Answer: 0.929 s

Question: What about the Stroop average time, Mean (subjects [4]; [10]) of the same molecule?
Answer: 0.921 s

Question: What about the Stroop average time, Mean (subjects [4]; [12]) of the same molecule?
Answer: 0.908 s

Question: And the Stroop average time, Mean (subjects [4]; Day 0 (before supplementation))?
Answer: 0.983 s

Source: patent US20260256794A1, “Oral Dynamine Formulations and Methods Therefor” (Ortho-Nutra, LLC, priority 2023, published 2026)
